Test results reported in patent US4666916A, “Hexahydro-(1)-benzo-(pyrano and thiopyrano) (4,3-C)pyridines, useful as serotin-2 blocking agents” (Ciba-Geigy Corporation, priority 1985, dated 1987).

Tests used:
[1] = biological target: T1, serotonin-2 (HT-2) receptor (Rattus norvegicus, UniProt P14842); assay: serotonin-2 (HT-2) receptor binding, inhibition of specific binding of ^3 H-ketanserin in frontal/parietal cortex membranes; design: species or system male Sprague-Dawley rats; settings: specific binding of ^3 H-ketanserin (0.4 nM)
T1 construct: membrane preparations of frontal/parietal cortex from male Sprague-Dawley rats; from tissue; host or cells: rat frontal/parietal cortex membranes (male Sprague-Dawley)
T1 sequence (P14842 whole entry): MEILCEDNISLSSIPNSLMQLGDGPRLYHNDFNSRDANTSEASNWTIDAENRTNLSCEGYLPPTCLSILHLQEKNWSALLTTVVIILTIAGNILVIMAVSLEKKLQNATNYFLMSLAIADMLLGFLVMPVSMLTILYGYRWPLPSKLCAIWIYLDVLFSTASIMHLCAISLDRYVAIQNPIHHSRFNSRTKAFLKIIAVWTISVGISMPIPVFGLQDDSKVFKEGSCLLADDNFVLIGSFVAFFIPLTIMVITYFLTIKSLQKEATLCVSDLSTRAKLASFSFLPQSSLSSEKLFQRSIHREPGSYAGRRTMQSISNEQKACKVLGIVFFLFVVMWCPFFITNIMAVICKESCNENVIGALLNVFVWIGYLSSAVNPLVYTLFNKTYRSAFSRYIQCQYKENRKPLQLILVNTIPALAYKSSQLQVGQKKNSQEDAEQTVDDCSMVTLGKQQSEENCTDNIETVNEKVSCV
Protocol: The serotonin-2 (HT-2) receptor binding properties, indicative of the serotonin-2 antagonist activity of the compounds of the invention, are determined in vitro by determining their ability to inhibit the specific binding of ^3 H-ketanserin, essentially as described by Battaglia et al in Life Sciences 33, 2011 (1983), in membrane preparations of frontal/parietal cortex from male Sprague-Dawley rats (200-225 g). IC50 values, representing the concentration of compound required to displace 50% of specific binding of 0.4 nM of ^3 H-ketanserin, are determined by log-logit analysis of the specific binding data. Selectivity for the HT-2 receptors can be determined by also measuring specific binding to serotonin-1 (HT-1) receptors, e.g. according to Middlemiss, D. N. and Fozard, J. R. in Eur. J. Pharmacol. 90, 151 (1980).

[2] = biological target: T2, serotonin-2 receptor (Rattus norvegicus, UniProt P14842); assay: head twitch test, inhibition of the head twitch induced by 5-hydroxytryptophane in the rat; format: in vivo, Male Wistar rats
T2 construct: Male Wistar rats (120-180 g) are fasted for 18 hr prior to testing; from tissue; host or cells: whole living animal (male Wistar rat), endogenous receptor of the central nervous system
T2 sequence (P14842 whole entry): as above
Protocol: The serotonin-2 antagonism or blockade is determined in vivo by measuring the inhibition of the head twitch induced by 5-hydroxytryptophane (the metabolic precursor of serotonin) in the rat. The head twitch test for assessing central nervous system serotonin-2 receptor antagonism in the rat is described in Neuropharmacology 16, 663 (1977) and in J. Pharmacol. Exp. Ther. 228, 133 (1984). The test is carried out as follows:
Male Wistar rats (120-180 g) are fasted for 18 hr prior to testing but allowed water ad libitum. All animals are pretreated with the peripheral decarboxylase inbihitor alpha-methyl-DOPA hydrazine (carbidopa 25 mg/kg i.p., 4.0 ml/kg) followed 30 min later by 5-hydroxytryptophan (5HTP 100 mg/kg s.c., 4.0 ml/kg). Ninety minutes after receiving 5HTP, the rats are placed individually in plexiglas observation cages and the frequency of head twitches for each animal is counted over a 10 min observation period. The test compound or vehicle is administered at either 0.5 hr at 1.0 ml/kg i.p. or at 1, 2 or 4 hr at 10 ml/kg p.o. prior to the observation period. ED50 values are determined by probit analysis.

CCSC[C@H]1CN(C)C[C@H]2c3cc(OC)cc(Br)c3OC[C@H]12 (relative stereo) [Example 4, (±)-[4R*,4aS*,10bR*]-7-Bromo-4-(ethylthiomethyl)-1,3,4,4a,5,10b-hexahydro-9-methoxy-2-methyl-2H-[1]benzopyrano[4,3-c]pyridine]
IC50 [1]: 22 nM | ED50 ([2]; 0.5 h, ip (at 30 minutes)): 1.1 mg/kg | ED50 ([2]; po (at 1 hour)): 0.71 mg/kg
